*1 amine or outer side, *2 acyl side, *3 side chain or, on linkers, in order; H or OH if unused. Where a SMILES comes first, the peptide text is derived from it. Bridges are numbered along the chain shown (N, C = ends). [ ]: non-standard residue; d: D form. The star is where a group is joined. X85 = CN([C@@H](Cc1cc(Cl)ccc1-c1ccc([C@]23CCOC[C@H]2C3)nc1)C(=O)[*:2])[*:1]; X98 = CN1CC2(C1)OCc1cc(-c3ccc(Cl)cc3C[C@@H](C(=O)[*:2])N(C)[*:1])ccc12; X40 = CN1CCN(Cc2ccc(-c3ccc(Cl)cc3C[C@@H](C(=O)[*:2])N(C)[*:1])cc2)CC1; X80 = CN1CC=C(c2ccc(-c3ccc(Cl)cc3C[C@@H](C(=O)[*:2])N(C)[*:1])cc2)CC1; X56 = CN1CCc2cc(-c3ccc(Cl)cc3C[C@@H](C(=O)[*:2])N(C)[*:1])ccc2C1; NMehhhLys(Me) = CN([C@@H](CCCCCCCN(C)[*:3])C(=O)[*:2])[*:1]; cBuCO(3,3-F2-1-CF3) = O=C(C1(C(F)(F)F)CC(F)(F)C1)*; Pro(trans-4-F) = O=C(O)[C@@H]1C[C@@H](F)CN1; Gly(cPr) = N[C@H](C(=O)O)C1CC1
Experiments:
[1] = target: T1, CyclinA2/CDK2 (Homo sapiens, UniProt P20248); assay: Fluorescence Polarization (FP) competitive binding assay, Cyclin A2/Cdk2; settings: 8 nM Cyclin A2/Cdk2, 2 nM FAM probe; average of 2-3 independent experiments; read-out: Cyclin A FP IC50;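 also: plates equilibrated two hours at room temperature before polarization reading, IC50 fitted from eight-concentration compound titration curves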
T1 construct: purchased CRELUX Protein Services

[2] = target: T2, CyclinB1/CDK1 (Homo sapiens, UniProt P14635); assay: Fluorescence Polarization (FP) competitive binding assay, Cyclin B1/Cdk1; settings: 10 nM Cyclin B1/Cdk1, 2 nM FAM probe; average of 2-3 independent experiments; read-out: Cyclin B FP IC50;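 also: fluorescence polarization read after equilibration at room temperature, with IC50 taken from serially diluted dose-response curves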
T2 construct: purchased Eurofins, discovery 14-450

[3] = target: T3, CyclinE1/CDK2 (Homo sapiens, UniProt P24864); assay: Fluorescence Polarization (FP) competitive binding assay, Cyclin E1/Cdk2; settings: 10 nM Cyclin E1/Cdk2, 2 nM FAM probe; average of 2-3 independent experiments; read-out: Cyclin E FP IC50;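 also: readings taken after two-hour equilibration at room temperature in HEPES buffer with NaCl, DTT, NP-40 and BSA, IC50 fitted from eight-concentration serial dilution series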
T3 construct: purchased Eurofins, discovery 14-475

[4] = system: WI-38 cells; assay: MTT proliferation assay, WI-38; type: cell-based; settings: 3 days compound exposure, 1:3 serial dilution starting at 10 μM;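 also: Eight- or ten-point dilution series, with exposure length chosen to span about three to four cell doublings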
[5] = system: NCI-H1048 cells; assay: MTT proliferation assay, NCI-H1048; type: cell-based; settings: 5 days compound exposure, 1:3 serial dilution starting at 10 μM;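 also: Dose-response in 96-well plates over 8 or 10 concentration points, with exposure spanning 3-4 cell doublings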
[6] = system: OVCAR3 cells; assay: MTT proliferation assay, OVCAR3; type: cell-based; settings: 5 days compound exposure, 1:3 serial dilution starting at 10 μM;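 also: compound given as an 8- or 10-point series, one day after plating, with exposure covering roughly 3-4 cell doublings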

Structure (SMILES)	IC50 [1]	IC50 [2]	IC50 [3]	GI50 [4]	GI50 [5]	GI50 [6]
CC(C)C[C@@H]1NC(=O)[C@@H](N(C)C(=O)[C@@H](NC(=O)[C@@H]2C[C@@H](F)CN2C(=O)C2(C(F)(F)F)CC(F)(F)C2)C2CC2)CCCCCCCN(C)C(=O)[C@H](Cc2cc(Cl)ccc2-c2ccc(C3=CCN(C)CC3)cc2)N(C)C1=O [Example 351] ({cBuCO(3,3-F2-1-CF3)}-[Pro(trans-4-F)][Gly(cPr)][NMehhhLys(Me)]L[X80]; lactam 3-C)	20 nM	20 nM	970 nM	1780 nM	10 nM	10 nM
CC(C)C[C@@H]1NC(=O)[C@@H](N(C)C(=O)[C@@H](NC(=O)[C@@H]2C[C@@H](F)CN2C(=O)C2(C(F)(F)F)CC(F)(F)C2)C2CC2)CCCCCCCN(C)C(=O)[C@H](Cc2cc(Cl)ccc2-c2ccc(CN3CCN(C)CC3)cc2)N(C)C1=O [Example 360] ({cBuCO(3,3-F2-1-CF3)}-[Pro(trans-4-F)][Gly(cPr)][NMehhhLys(Me)]L[X40]; lactam 3-C)	20 nM	20 nM	860 nM	2720 nM	10 nM	10 nM
Cc1nnc(-c2ccc(Cl)cc2C[C@H]2C(=O)N(C)CCCCC=CC[C@H](N(C)C(=O)[C@@H](NC(=O)[C@@H]3C[C@@H](F)CN3C(=O)C3(C(F)(F)F)CCC3)C3CC3)C(=O)N[C@@H](CC(C)C)C(=O)N2C)o1 [Example 115]	40 nM	20 nM	170 nM	11000 nM	70 nM	60 nM
CC(C)C[C@@H]1NC(=O)[C@@H](N(C)C(=O)[C@@H](NC(=O)[C@@H]2C[C@@H](F)CN2C(=O)C2(C(F)(F)F)CC(F)(F)C2)C2CC2)CCCCCCCN(C)C(=O)[C@H](Cc2cc(Cl)ccc2-c2ccc([C@]34CCOC[C@H]3C4)nc2)N(C)C1=O [Example 369] ({cBuCO(3,3-F2-1-CF3)}-[Pro(trans-4-F)][Gly(cPr)][NMehhhLys(Me)]L[X85]; lactam 3-C)	20 nM	20 nM	1490 nM	4540 nM	20 nM	20 nM
CC(C)C[C@@H]1NC(=O)[C@@H](N(C)C(=O)[C@@H](NC(=O)[C@@H]2C[C@@H](F)CN2C(=O)C2(C(F)(F)F)CC(F)(F)C2)C2CC2)CCCCCCCN(C)C(=O)[C@H](Cc2cc(Cl)ccc2-c2ccc3c(c2)CCN(C)C3)N(C)C1=O [Example 407] ({cBuCO(3,3-F2-1-CF3)}-[Pro(trans-4-F)][Gly(cPr)][NMehhhLys(Me)]L[X56]; lactam 3-C)	20 nM	20 nM	1460 nM	3010 nM	10 nM	20 nM
CC(C)C[C@@H]1NC(=O)[C@@H](N(C)C(=O)[C@@H](NC(=O)[C@@H]2C[C@@H](F)CN2C(=O)C2(C(F)(F)F)CCC2)C2CC2)CC=CCCCCNC(=O)[C@H](Cc2cc(Cl)cnc2OC(C)C)N(C)C1=O (single isomer, unassigned) [Example 136-P1]	140 nM	20 nM	320 nM	3960 nM	830 nM	1770 nM
CC(C)C[C@@H]1NC(=O)[C@@H](N(C)C(=O)[C@@H](NC(=O)[C@@H]2C[C@@H](F)CN2C(=O)C2(C(F)(F)F)CC(F)(F)C2)C2CC2)CCCCCCCN(C)C(=O)[C@H](Cc2cc(Cl)ccc2-c2ccc3c(c2)COC32CN(C)C2)N(C)C1=O [Example 355] ({cBuCO(3,3-F2-1-CF3)}-[Pro(trans-4-F)][Gly(cPr)][NMehhhLys(Me)]L[X98]; lactam 3-C)	20 nM	20 nM	1760 nM	2770 nM	10 nM	10 nM
